Reference: article PMC4104029, “Mechanism of Action of Compound-13: An α1-Selective Small Molecule Activator of AMPK” (Chemistry & Biology, 2014)

How the values were obtained:
[1] = parameters: method as in Gómez-Galeno et al., 2010; settings: 100 μM for up to 6 hr; ref Gómez-Galeno et al., 2010; cited from earlier work
AMPKα1β1γ2 with γ2 R531G = biological target: T1, AMPKα1β1γ2 with γ2 R531G (Homo sapiens, UniProt Q13131+Q9UGJ0, R531G); assay: AMPKα1β1γ2 mutagenesis, activation assay; type: biochemical; settings: 1 μM C2; complex purified from COS1 cells
T1 construct: made in house; host or cells: COS1 cells (transient transfection, FLAG-M2 purification)
Experimental: (§1) Figure 2 C2 Is a Partial Agonist of α2 Complexes and Selectively Protects α1 Complexes against Dephosphorylation by PP2C (A and B) Recombinant AMPKα1β1γ1 (A) or AMPKα2β1γ1 (B) was assayed in the presence of AMP (30 μM) and increasing concentrations of C2 (0–20 μM). Results are expressed as fold increase in activity relative to controls without ligand and represent the mean ± SD for three independent experiments. (C and D) The effects of C2 and AMP on dephosphorylation and inactivation of AMPKα1β1γ1 (C) and α2β1γ1 (D) by PP2Cα (present in all assay conditions). Results are expressed as a percentage of control reactions performed in the absence of Mg^2+ and represent the mean ± SD of three independent experiments. Representative blots of pT172 and total AMPKα are shown below the bar charts. […] Results are expressed as the fold increase in activity relative to controls in the absence of compound and represent the mean ± SD for three independent experiments. […]
(§2) Competitive elution of AMPKγ2 from ATP-Sepharose. […] Resin was pelleted at low speed and the resulting supernatant analysed for the presence of AMPKγ2 by SDS-PAGE and staining with colloidal Coomassie (Generon). […]

[2] = biological target: T2, AMPKα1β1γ2 with β1 Δ1–185 (ΔCBD) (Homo sapiens, UniProt Q13131+Q9UGJ0); assay: AMPKα1β1γ2 mutagenesis, activation assay; type: biochemical; settings: 1 μM C2; complex purified from COS1 cells
T2 construct: made in house; host or cells: COS1 cells (transient transfection, FLAG-M2 purification)
Experimental: as §1, §2

[3] = biological target: T3, WT FLAG-α2, β1, and γ1 in COS1 cells (Homo sapiens, UniProt P54619+P54646); assay: Kinase activity in anti-FLAG immunoprecipitates from treated COS1 cells; type: cell-based; settings: up to 100 μM, 1 h
T3 construct: expressed in transfected cells; host or cells: COS-1 cells
Excerpt: (Needleman and Wunsch, 1970) and edited using ESPript (Gouet, et al., 2003). Secondary structure was derived from PDBID 2Y94. The phosphotransferase domain is shaded green (T-loop phosphorylation site is indicated with a star), the autoinhibitory domain in blue and the C-terminal domain in yellow. Regulatory elements in the α-linker are also indicated: α-hook in pink and α-RIMs in orange. Black lines indicate the position of the epitopes recognised by α-subunit specific antibodies used in this study. (B) COS-1 cells were seeded into 6-well plates and transiently transfected with pCMV-AMPKβ1, pCMV-AMPKγ1 and either pCMV-FLAG-AMPKα2 WT or pCMV-FLAG-AMPKα2/α1 LOOP chimera using FuGENE HD.
After 24 h cells were treated with the indicated compounds for 1 h and kinase activity determined in anti-FLAG immunoprecipitates under standard conditions. […]
Mouse hepatocytes were incubated with the indicated compounds in the absence (Resting) or presence of 10 mU/ml insulin for 60 min. Lysates were analysed by Western blotting using the indicated antibodies. […]
Yeast acetate CoA ligase (Sigma) was assayed in reactions containing 50 mM TES pH 7.4, 0.1 mM EDTA, 5 mM MgCl2, 4 mM ATP, 0.2 mM coenzyme A, 5 mM DTT and increasing concentrations of C2 and C13 (0 – 100 μM). The formation of pyrophosphate (PPi) was monitored by reduction of PPi-molybdate complexes as described in Methods. […]

T2 sequence (Q13131 whole entry, stated change not applied): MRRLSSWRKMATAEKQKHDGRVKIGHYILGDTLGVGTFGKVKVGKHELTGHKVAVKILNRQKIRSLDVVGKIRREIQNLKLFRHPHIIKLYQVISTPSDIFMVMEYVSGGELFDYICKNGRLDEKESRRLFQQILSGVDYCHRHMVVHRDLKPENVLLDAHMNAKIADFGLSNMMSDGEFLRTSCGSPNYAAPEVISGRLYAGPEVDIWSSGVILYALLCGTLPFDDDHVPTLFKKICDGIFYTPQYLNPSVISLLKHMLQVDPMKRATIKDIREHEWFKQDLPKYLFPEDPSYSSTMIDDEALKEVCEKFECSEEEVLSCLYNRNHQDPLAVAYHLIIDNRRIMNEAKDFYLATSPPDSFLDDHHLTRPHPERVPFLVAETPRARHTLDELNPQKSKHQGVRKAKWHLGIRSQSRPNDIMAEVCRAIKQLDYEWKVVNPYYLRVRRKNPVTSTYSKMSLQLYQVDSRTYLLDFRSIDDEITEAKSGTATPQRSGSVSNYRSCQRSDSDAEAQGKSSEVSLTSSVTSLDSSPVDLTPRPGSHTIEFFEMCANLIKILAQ
T2 sequence (Q9Y478 186-270 partner): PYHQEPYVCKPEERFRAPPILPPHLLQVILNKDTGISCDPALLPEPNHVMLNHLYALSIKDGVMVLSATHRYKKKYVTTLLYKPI
T2 sequence (Q9UGJ0 whole entry, stated change not applied): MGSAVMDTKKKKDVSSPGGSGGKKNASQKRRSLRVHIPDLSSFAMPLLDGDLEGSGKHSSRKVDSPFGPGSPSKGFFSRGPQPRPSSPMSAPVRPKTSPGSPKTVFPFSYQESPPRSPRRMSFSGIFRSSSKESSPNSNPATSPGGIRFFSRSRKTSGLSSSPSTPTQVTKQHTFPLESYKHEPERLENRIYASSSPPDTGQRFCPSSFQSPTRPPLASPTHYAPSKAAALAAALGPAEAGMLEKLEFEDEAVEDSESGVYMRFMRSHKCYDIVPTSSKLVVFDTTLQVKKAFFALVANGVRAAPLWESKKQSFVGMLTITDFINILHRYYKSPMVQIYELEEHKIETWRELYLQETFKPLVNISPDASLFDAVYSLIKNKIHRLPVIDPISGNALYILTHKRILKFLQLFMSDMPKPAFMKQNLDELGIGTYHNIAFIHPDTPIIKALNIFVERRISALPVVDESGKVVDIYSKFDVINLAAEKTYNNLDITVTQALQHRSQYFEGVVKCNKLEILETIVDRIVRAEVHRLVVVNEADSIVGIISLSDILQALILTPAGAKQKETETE
T1 sequence (Q13131 whole entry): as the sequence (Q13131 whole entry, stated change not applied) above
T1 sequence (Q9Y478 whole entry partner): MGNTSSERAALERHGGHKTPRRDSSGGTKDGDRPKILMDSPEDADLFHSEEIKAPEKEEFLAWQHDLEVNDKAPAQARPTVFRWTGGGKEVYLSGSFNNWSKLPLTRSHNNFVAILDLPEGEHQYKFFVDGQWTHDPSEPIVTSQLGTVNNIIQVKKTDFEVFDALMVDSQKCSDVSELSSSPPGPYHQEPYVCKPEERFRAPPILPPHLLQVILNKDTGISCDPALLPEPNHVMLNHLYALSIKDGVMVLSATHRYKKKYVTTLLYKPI
T1 sequence (Q9UGJ0 whole entry R531G): as the sequence (Q9UGJ0 whole entry, stated change not applied) above, with R531G counted along it
T3 sequence (P54646 whole entry): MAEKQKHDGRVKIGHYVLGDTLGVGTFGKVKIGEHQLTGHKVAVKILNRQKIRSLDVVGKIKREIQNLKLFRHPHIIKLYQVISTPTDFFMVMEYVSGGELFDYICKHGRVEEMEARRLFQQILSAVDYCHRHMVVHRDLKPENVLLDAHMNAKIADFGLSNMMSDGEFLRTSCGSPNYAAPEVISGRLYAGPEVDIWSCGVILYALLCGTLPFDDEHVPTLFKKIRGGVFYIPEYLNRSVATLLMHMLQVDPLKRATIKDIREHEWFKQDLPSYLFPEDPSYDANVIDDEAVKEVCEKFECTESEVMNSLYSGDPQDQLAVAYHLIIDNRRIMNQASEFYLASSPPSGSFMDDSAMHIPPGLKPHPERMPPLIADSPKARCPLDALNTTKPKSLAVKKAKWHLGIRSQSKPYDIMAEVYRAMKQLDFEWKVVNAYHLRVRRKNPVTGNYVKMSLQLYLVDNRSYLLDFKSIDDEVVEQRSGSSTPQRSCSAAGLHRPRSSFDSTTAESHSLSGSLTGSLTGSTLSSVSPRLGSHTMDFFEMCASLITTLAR
T3 sequence (Q9Y478 whole entry partner): as the sequence (Q9Y478 whole entry partner) above
T3 sequence (P54619 whole entry): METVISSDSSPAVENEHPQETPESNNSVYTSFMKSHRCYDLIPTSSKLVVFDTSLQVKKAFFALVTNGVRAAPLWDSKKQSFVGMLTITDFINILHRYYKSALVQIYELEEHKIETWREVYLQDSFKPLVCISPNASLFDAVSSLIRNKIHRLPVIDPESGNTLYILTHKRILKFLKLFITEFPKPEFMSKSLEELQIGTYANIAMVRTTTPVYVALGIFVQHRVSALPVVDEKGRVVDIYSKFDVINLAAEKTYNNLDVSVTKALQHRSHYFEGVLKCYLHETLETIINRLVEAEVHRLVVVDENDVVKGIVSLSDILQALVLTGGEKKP

| Structure (SMILES) | cellular accumulation [1] | stimulation of mutant complex (AMPKα1β1γ2 with γ2 R531G) | activation of mutant complex [2] | kinase activation in cells [3] |
| --- | --- | --- | --- | --- |
| O=P(O)(O)c1ccc(-c2cc(O)on2)o1 [Compound C2, 5-(5-hydroxyl-isoxazol-3-yl)-furan-2-phosphonic acid] | no significant cellular accumulation | failed to stimulate | unaffected |  |
| CC(C)C(=O)OCOP(=O)(OCOC(=O)C(C)C)c1ccc(C2=NOC(=O)C2)o1 [Compound C13] |  |  |  | unresponsive |
